Measured values: publication PMC4268712, “Steroidal and non-steroidal third-generation aromatase inhibitors induce pain-like symptoms via TRPA1” (Nature Communications, 2014)

Assays:
[1] = molecular target: T1, transient receptor potential ankyrin 1 (TRPA1) (Homo sapiens, UniProt O75762); experiment: calcium imaging (and whole-cell patch clamp) in hTRPA1-HEK293 cells, blocked by HC-030031, absent in untransfected cells; type: cell-based
[2] = molecular target: T1, transient receptor potential ankyrin 1 (TRPA1); experiment: calcium imaging in HEK293 cells transfected with wild-type hTRPA1 ([…]); type: cell-based

T1 sequence (O75762 whole entry): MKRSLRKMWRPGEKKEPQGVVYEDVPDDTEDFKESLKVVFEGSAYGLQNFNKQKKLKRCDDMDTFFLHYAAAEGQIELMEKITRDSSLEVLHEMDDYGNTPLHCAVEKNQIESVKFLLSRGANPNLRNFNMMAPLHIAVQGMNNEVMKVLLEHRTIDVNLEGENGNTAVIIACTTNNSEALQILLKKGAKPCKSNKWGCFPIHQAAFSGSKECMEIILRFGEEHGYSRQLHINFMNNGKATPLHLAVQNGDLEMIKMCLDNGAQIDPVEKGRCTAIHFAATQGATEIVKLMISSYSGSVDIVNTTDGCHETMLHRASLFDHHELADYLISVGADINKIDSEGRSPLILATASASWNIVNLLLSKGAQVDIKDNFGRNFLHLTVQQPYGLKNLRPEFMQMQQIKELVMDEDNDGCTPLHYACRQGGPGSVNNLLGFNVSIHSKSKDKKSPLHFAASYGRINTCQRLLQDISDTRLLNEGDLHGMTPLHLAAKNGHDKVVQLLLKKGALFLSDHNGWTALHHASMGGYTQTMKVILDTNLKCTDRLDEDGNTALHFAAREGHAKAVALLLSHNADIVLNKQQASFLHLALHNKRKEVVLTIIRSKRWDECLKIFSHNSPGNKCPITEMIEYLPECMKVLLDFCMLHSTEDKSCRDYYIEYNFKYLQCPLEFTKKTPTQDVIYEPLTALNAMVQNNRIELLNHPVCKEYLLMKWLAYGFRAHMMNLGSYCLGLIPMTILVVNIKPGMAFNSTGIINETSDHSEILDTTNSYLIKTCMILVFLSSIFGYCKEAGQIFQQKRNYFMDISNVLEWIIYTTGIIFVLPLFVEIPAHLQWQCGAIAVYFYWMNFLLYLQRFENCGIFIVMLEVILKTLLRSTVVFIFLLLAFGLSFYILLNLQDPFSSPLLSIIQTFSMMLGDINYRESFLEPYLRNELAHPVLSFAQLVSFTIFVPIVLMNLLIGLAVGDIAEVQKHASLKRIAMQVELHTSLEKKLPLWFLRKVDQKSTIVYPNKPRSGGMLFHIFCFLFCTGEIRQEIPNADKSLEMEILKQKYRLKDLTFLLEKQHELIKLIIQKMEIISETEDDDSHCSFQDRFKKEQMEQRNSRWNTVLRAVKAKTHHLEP

Row | SMILES | EC50 [1] [µM] | calcium imaging in HEK293 cells transfected with wild-type hTRPA1 (100 μM) [2]
1 | N#Cc1ccc(C(c2ccc(C#N)cc2)n2cncn2)cc1 [LTZ, letrozole] | 69 | 
2 | CC1CCC(C(C)C)C(O)C1 (stereo not shown) [menthol] |  | HEK293 cells transfected with the cDNA codifying for wild-type hTRPA1 (WT) respond to all the drugs
3 | C=C1C[C@@H]2[C@H](CC[C@]3(C)C(=O)CC[C@@H]23)[C@@]2(C)C=CC(=O)C=C12 [EXE, exemestane] | 58 | 
4 | CC(C)(C#N)c1cc(Cn2cncn2)cc(C(C)(C)C#N)c1 [ANA, anastrozole] | 134 | 
